# US20220340875A1, “METHODS OF CULTURING AND/OR EXPANDING STEM CELLS AND/OR LINEAGE COMMITTED PROGENITOR CELLS USING AMIDO COMPOUNDS” (IDEAYA BIOSCIENCES, INC., priority 2018, published 2022)
# Biological target: T1, hAhR (Homo sapiens, UniProt P35869)
# T1 construct: Stably integrated DRE-luciferase cell lines were generated by transducing the both cell lines with Cignal XRE luciferase reporter (Qiagen) lentiviral particles; endogenous in cells
# T1 sequence (P35869 11-848): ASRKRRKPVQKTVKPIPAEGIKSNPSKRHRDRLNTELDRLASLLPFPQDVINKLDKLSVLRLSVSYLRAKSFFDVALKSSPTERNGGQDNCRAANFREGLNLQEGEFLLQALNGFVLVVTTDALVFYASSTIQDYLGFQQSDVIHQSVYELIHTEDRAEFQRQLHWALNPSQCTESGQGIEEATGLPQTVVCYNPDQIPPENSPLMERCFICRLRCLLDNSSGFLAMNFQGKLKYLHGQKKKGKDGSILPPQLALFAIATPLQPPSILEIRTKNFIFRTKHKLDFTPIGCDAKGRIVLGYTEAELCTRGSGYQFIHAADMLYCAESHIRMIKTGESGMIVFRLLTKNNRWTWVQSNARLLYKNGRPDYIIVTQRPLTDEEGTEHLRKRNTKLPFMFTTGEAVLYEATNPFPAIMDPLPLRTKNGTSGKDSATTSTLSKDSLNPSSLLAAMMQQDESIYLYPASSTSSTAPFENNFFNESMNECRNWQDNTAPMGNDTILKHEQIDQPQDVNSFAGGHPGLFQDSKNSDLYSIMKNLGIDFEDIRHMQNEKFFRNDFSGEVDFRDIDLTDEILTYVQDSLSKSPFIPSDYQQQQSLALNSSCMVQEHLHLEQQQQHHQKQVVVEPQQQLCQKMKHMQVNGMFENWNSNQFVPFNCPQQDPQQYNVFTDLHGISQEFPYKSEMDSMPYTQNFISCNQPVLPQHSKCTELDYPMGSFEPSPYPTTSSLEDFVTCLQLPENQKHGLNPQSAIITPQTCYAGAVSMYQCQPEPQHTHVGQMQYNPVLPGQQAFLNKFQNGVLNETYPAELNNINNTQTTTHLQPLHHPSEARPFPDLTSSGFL
# Test: AhR DRE-luciferase reporter transcriptional assay, antagonist mode (TCDD-induced)
# Assay type: cell-based
# Details: HEPG2 DRE-Luc cells, 3 nM TCDD, 24 hour incubation, relative IC50
# Method in brief: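 HepG2 cells carrying a stably integrated DRE-luciferase reporter, in OptiMEM with 0.5% FBS; semi-log compound doses added with 3 nM TCDD, 24 h incubation, firefly luciferase read-out. Percent maximal activity normalised between vehicle ± TCDD; relative IC50 taken as half-reduction between curve plateaus.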
row,SMILES,IC50
1,"Cc1cc(-c2ncc3cc(C(F)(F)F)ccc3n2)ccc1NC(=O)c1ccncc1 [Example 115, N-(2-methyl-4-(6-(trifluoromethyl)quinazolin-2-yl)phenyl)isonicotinamide]",< 200 nM
2,"COc1cccc2ccc(-c3ccc(NC(=O)c4ccnn4C)c(C)c3)nc12 [Example 056, N-(4-(8-methoxyquinolin-2-yl)-2-methylphenyl)-1-methyl-1H-pyrazole-5-carboxamide]",500 to 1000 nM
3,"Cc1cc(-c2ccc3c(C(F)(F)F)cn(C)c3c2)ccc1N(C)C(=O)c1ccnn1C [Example 087, N,1-dimethyl-N-(2-methyl-4-(1-methyl-3-(trifluoromethyl)-1H-indol-6-yl)phenyl)-1H-pyrazole-5-carboxamide]",1000 to 10000 nM
4,"Cc1cc(-c2ncc3nc(C(F)(F)F)cc(C)c3n2)ccc1N(C)C(=O)c1ccnn1CC(C)O (centres unmarked) [Example 192, 1-(2-hydroxypropyl)-N-methyl-N-(2-methyl-4-(8-methyl-6-(trifluoromethyl)pyrido[3,2-d]pyrimidin-2-yl)phenyl)-1H-pyrazole-5-carboxamide]",< 200 nM
5,"Cc1cc(NC(=O)c2c(C)cnn2C)c(F)cc1-c1ccc2cc(C(F)(F)F)ccc2n1 [Example 207, N-(2-fluoro-5-methyl-4-(6-(trifluoromethyl)quinolin-2-yl)phenyl)-1,4-dimethyl-1H-pyrazole-5-carboxamide]",200 to 500 nM
6,"Cc1cc(-c2ccc3cc(Cl)ccc3n2)ccc1NC(=O)c1ccnn1C [Example 065, N-(4-(6-Chloroquinolin-2-yl)-2-methylphenyl)-1-methyl-1H-pyrazole-5-carboxamide]",200 to 500 nM
7,"COC(=O)N(C)c1ccc(-c2ncc3cc(C(F)(F)F)ccc3n2)cc1C [Example 128, methyl methyl(2-methyl-4-(6-(trifluoromethyl)quinazolin-2-yl)phenyl)carbamate]",< 200 nM
8,"Cc1cc(-c2ncc3cc(C(F)(F)F)ccc3n2)ccc1NC(=O)c1nn(C)cc1C [Example 216, 1,4-dimethyl-N-(2-methyl-4-(6-(trifluoromethyl)quinazolin-2-yl)phenyl)-1H-pyrazole-3-carboxamide]",< 200 nM
9,"Cc1cc(-c2ccc3cc(F)ccc3n2)ccc1NC(=O)c1ccccn1 [Example 026, N-(4-(6-fluoroquinolin-2-yl)-2-methylphenyl)picolinamide]",500 to 1000 nM
10,"CN(C(=O)c1ccnn1C)c1ccc(-c2ncc3nc(C(F)(F)F)ccc3n2)cc1F [Example 138, N-(2-fluoro-4-(6-(trifluoromethyl)pyrido[3,2-d]pyrimidin-2-yl)phenyl)-N,1-dimethyl-1H-pyrazole-5-carboxamide]",< 200 nM
11,"Cc1nc(NC(=O)c2ccnn2C)ccc1-c1ccc2cc(F)ccc2n1 [Example 044, N-(5-(6-fluoroquinolin-2-yl)-6-methylpyridin-2-yl)-1-methyl-1H-pyrazole-5-carboxamide]",1000 to 10000 nM
12,"Cc1cc(-c2ncc3cc(C(F)(F)F)ccc3n2)ccc1N(C)C(=O)c1cnc[nH]1 [Example 131, N-methyl-N-(2-methyl-4-(6-(trifluoromethyl)quinazolin-2-yl)phenyl)-1H-imidazole-5-carboxamide]",200 to 500 nM
13,"Cc1cc(-c2ncc3cc(C(F)(F)F)ccc3n2)ccc1NC(=O)c1ccncc1C [Example 121, 3-methyl-N-(2-methyl-4-(6-(trifluoromethyl)quinazolin-2-yl)phenyl)isonicotinamide]",< 200 nM
14,"Cc1cc(-c2ncc3nc(C(F)(F)F)cc(C)c3n2)ccc1N(C)C(=O)c1ccnn1C [Example 148, N,1-Dimethyl-N-(2-methyl-4-(8-methyl-6-(trifluoromethyl)pyrido[3,2-d]pyrimidin-2-yl)phenyl)-1H-pyrazole-5-carboxamide]",< 200 nM
15,"Cn1nccc1C(=O)Nc1ccc(-c2ccc3cc(F)ccc3n2)cc1OC(F)(F)F [Example 047, N-(4-(6-fluoroquinolin-2-yl)-2-(trifluoromethoxy)phenyl)-1-methyl-1H-pyrazole-5-carboxamide]",1000 to 10000 nM
16,"CNC(=O)c1cc(C(=O)N(C)c2ccc(-c3ncc4nc(C(F)(F)F)cc(C)c4n3)cc2C)ccn1 [Example 169, N2,N4-dimethyl-N4-(2-methyl-4-(8-methyl-6-(trifluoromethyl)pyrido-[3,2-d]pyrimidin-2-yl)phenyl)pyridine-2,4-dicarboxamide]",< 200 nM

# Continued, values first:
row,IC50,SMILES
1,500 to 1000 nM,"Cc1cc(-c2ccc3ccn(C)c3c2)ccc1NC(=O)c1ccnn1C [Example 082, 1-Methyl-N-(2-methyl-4-(1-methyl-1H-indol-6-yl)phenyl)-1H-pyrazole-5-carboxamide]"
2,1000 to 10000 nM,"Cc1nc(-c2ccc3cc(F)ccc3n2)ccc1NC(=O)c1ccnn1C [Example 045, N-(6-(6-fluoroquinolin-2-yl)-2-methylpyridin-3-yl)-1-methyl-1H-pyrazole-5-carboxamide]"
3,200 to 500 nM,"Cc1cc(-c2ccc3cc(N4CCOCC4)ccc3n2)ccc1NC(=O)c1ccnn1C [Example 071, 1-methyl-N-(2-methyl-4-(6-morpholinoquinolin-2-yl)phenyl)-1H-pyrazole-5-carboxamide]"
4,< 200 nM,"CN(C(=O)c1ccnn1C)c1ccc(-c2ncc3cc(C(F)(F)F)ccc3n2)cc1 [Example 218, N,1-dimethyl-N-(4-(6-(trifluoromethyl)quinazolin-2-yl)phenyl)-1H-pyrazole-5-carboxamide]"
5,< 200 nM,"COc1cnccc1C(=O)Nc1ccc(-c2ncc3cc(C(F)(F)F)ccc3n2)cc1C [Example 144, 3-methoxy-N-(2-methyl-4-(6-(trifluoromethyl)quinazolin-2-yl)phenyl)isonicotinamide]"
6,1000 to 10000 nM,"Cc1cc(-c2ncc3nc(C(F)(F)F)cc(C)c3n2)ccc1N(C)C(=O)c1cc(C(=O)O)nn1CC(N)=O [Example 195, 1-(2-amino-2-oxoethyl)-5-(methyl(2-methyl-4-(8-methyl-6-(trifluoro-methyl)pyrido[3,2-d]pyrimidin-2-yl)phenyl)carbamoyl)-1H-pyrazole-3-carboxylic acid]"
7,200 to 500 nM,"Cc1cc(-c2ncc3cc(C(F)(F)F)ccc3n2)ccc1N(C)C(=O)c1ncn[nH]1 [Example 134, N-methyl-N-(2-methyl-4-(6-(trifluoromethyl)quinazolin-2-yl)phenyl)-1H-1,2,4-triazole-5-carboxamide]"
8,1000 to 10000 nM,"Cc1cc(-c2ccc3c(C(F)(F)F)cn(C)c3c2)ccc1NC(=O)c1ccnn1C [Example 086, 1-methyl-N-(2-methyl-4-(1-methyl-3-(trifluoromethyl)-1H-indol-6-yl)phenyl)-1H-pyrazole-5-carboxamide]"
9,< 200 nM,"Cc1cc(-c2ncc3cc(C(F)(F)F)ccc3n2)ccc1N(C)C(=O)c1ccnn1CCO [Example 211, 1-(2-hydroxyethyl)-N-methyl-N-(2-methyl-4-(6-(trifluoromethyl)quinazolin-2-yl)phenyl)-1H-pyrazole-5-carboxamide]"
10,< 200 nM,"Cc1cc(-c2ncc3cc(C(F)(F)F)ccc3n2)ccc1N(C)C(=O)c1ncc[nH]1 [Example 132, N-methyl-N-(2-methyl-4-(6-(trifluoromethyl)quinazolin-2-yl)phenyl)-1H-imidazole-2-carboxamide]"
11,< 200 nM,"Cc1cc(-c2ncc3cc(F)cc(C)c3n2)ccc1NC(=O)c1ccnn1C [Example 109, N-(4-(6-fluoro-8-methylquinazolin-2-yl)-2-methylphenyl)-1-methyl-1H-pyrazole-5-carboxamide]"
12,< 200 nM,"Cc1cc(C(=O)N(C)c2ccc(-c3ncc4nc(C(F)(F)F)cc(C)c4n3)cc2C)ccn1 [Example 150, N,2-dimethyl-N-(2-methyl-4-(8-methyl-6-(trifluoromethyl)pyrido[3,2-d]pyrimidin-2-yl)phenyl)isonicotinamide]"
13,1000 to 10000 nM,"Cc1c(NC(=O)c2ccnn2C)ccc(-c2ncc3nc(C(F)(F)F)ccc3n2)c1C [Example 190, N-(2,3-dimethyl-4-(6-(trifluoromethyl)pyrido[3,2-d]pyrimidin-2-yl)phenyl)-1-methyl-1H-pyrazole-5-carboxamide]"
14,< 200 nM,"Cc1cc(-c2ccc3cc([N+](=O)[O-])ccc3n2)ccc1NC(=O)c1ccnn1C [Example 076, 1-methyl-N-(2-methyl-4-(6-nitroquinolin-2-yl)phenyl)-1H-pyrazole-5-carboxamide]"
15,< 200 nM,"COc1cnccc1C(=O)N(C)c1ccc(-c2ncc3nc(C(F)(F)F)cc(C)c3n2)cc1C [Example 183, 3-methoxy-N-methyl-N-(2-methyl-4-(8-methyl-6-(trifluoromethyl)-pyrido[3,2-d]pyrimidin-2-yl)phenyl)isonicotinamide]"
16,1000 to 10000 nM,"Cc1cc(-c2ccc3cc(C(F)(F)F)ccc3n2)ccc1N(C)C(=O)C(F)(F)F [Example 081, 2,2,2-Trifluoro-N-methyl-N-(2-methyl-4-(6-(trifluoromethyl)quinolin-2-yl)phenyl)acetamide]"
